This passage reports IC50 results from ChEMBL document CHEMBL1142884, “Inhibition of horseradish peroxidase catalytic activity by new 3-phenylcoumarin derivatives: synthesis and structure-activity relationships” (Bioorg Med Chem, 2007).

Assay [1] in a line: DPPH radical scavenging activity. The class given is functional. (In general: DPPH is a stable violet radical that fades when it is reduced.)
Assay [2] in a line: Inhibition of horseradish peroxidase catalytic activity by luminol-enhanced chemiluminescence assay. Also on record: species or system Armoracia rusticana.

As usually defined, the IC50 is the point on the concentration scale where inhibition reaches its midpoint. Turning to `O=c1oc2ccc(O)cc2cc1-c1ccccc1O`, the IC50 in assay [1] amounted to 24.9 µM; in assay [2] it was 24.6 µM.

Take `O=c1oc2ccc(O)cc2cc1-c1ccc(O)c(O)c1`: the figures for the IC50 in assay [1] and in assay [2] were 26.8 µM and 2.8 µM, respectively.

For the molecule `O=c1oc2cc(O)c(O)cc2cc1-c1ccc(O)c(O)c1`, the half-inhibitory concentration (IC50) in assay [1] was found to be 9.8 µM; in assay [2], 1.2 µM.

In the case of `O=c1oc2cc(O)c(O)cc2cc1-c1ccc2c(c1)OCO2`, the figures for the 50% inhibitory concentration (IC50) in assay [1] and in assay [2] were 13.2 µM and 3.4 µM, respectively.

Regarding `CC(=O)Oc1ccc(-c2cc3cc(OC(C)=O)c(OC(C)=O)cc3oc2=O)cc1OC(C)=O`, the IC50 in assay [2] is 28.2 µM.
